Experimental data as given in the supplement of paper PMC10307832.

Legend:
Test in all cases: relative viability (nuclei count vs DMSO), 5 days (fraction); higher = more cells survive
[1] = compound: C1=CC=C2C(=C1)N=C(S2)C(C#N)C3=NC(=NC=C3)NCCC4=CN=CC=C4 + O=C(CCCCCCC(=O)Nc1ccccc1)NO [Vorinostat] (partner 1 µM)
How it was run: (§1)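 Medians of duplicate plates are given as relative viability. That measure is the nuclei count in treated wells divided by the count in vehicle wells. Counts were taken on 4× images of lung cancer cell lines in 1536-well plates, 5 days after pin-tool dosing the day after seeding with one drug alone or a fixed anchor-drug dose plus five library-drug doses (not always all listed) in √10 steps.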

[2] = compound: COc1cc(N2CCC(N3CCN(C)CC3)CC2)ccc1Nc1ncc(Cl)c(Nc2ccccc2S(=O)(=O)C(C)C)n1 [NVP-TAE684] + Cc1nc(Nc2ncc(C(=O)Nc3c(C)cccc3Cl)s2)cc(N2CCN(CCO)CC2)n1 [Dasatinib] (partner 0.075 µM)
How it was run: as §1

[3] = compound: C#Cc1cccc(Nc2ncnc3cc(OC)c(OCCCCCCC(=O)NO)cc23)c1 [CUDC-101] + O=C(c1cc(Cc2n[nH]c(=O)c3ccccc23)ccc1F)N1CCN(C(=O)C2CC2)CC1 [Olaparib] (partner 8 µM)
How it was run: as §1

[4] = compound: C#Cc1cccc(Nc2ncnc3cc(OC)c(OCCCCCCC(=O)NO)cc23)c1 [CUDC-101] + CS(=O)(=O)N1CCN(Cc2cc3nc(-c4cccc5[nH]ncc45)nc(N4CCOCC4)c3s2)CC1 [Pictilisib] (partner 1 µM)
How it was run: as §1

Cell Line | relative viability ([1]; first compound 0.005 µM) | relative viability ([1]; first compound 0.01581 µM) | relative viability ([1]; first compound 0.05 µM) | relative viability ([1]; first compound 0.1581 µM) | relative viability ([1]; first compound 0.5 µM) | relative viability ([2]; first compound 0.2 µM) | relative viability ([2]; first compound 0.6325 µM) | relative viability ([2]; first compound 2 µM) | relative viability ([3]; first compound 0.01 µM) | relative viability ([3]; first compound 0.03162 µM) | relative viability ([3]; first compound 0.1 µM) | relative viability ([3]; first compound 0.3162 µM) | relative viability ([3]; first compound 1 µM) | relative viability ([4]; first compound 0.01 µM) | relative viability ([4]; first compound 0.03162 µM) | relative viability ([4]; first compound 0.1 µM) | relative viability ([4]; first compound 0.3162 µM) | relative viability ([4]; first compound 1 µM)
NCI-H727 | 1.38 | 1.08 | 1.1 | 1.38 | 1.37 | 0.383 | 0.273 | 0.232 | 0.797 | 0.623 | 0.708 | 0.699 | 0.461 | 0.412 | 0.355 | 0.283 | 0.286 | 0.27
BEN | 0.496 | 0.58 | 0.548 | 0.643 | 0.577 | 0.37 | 0.287 | 0.28 | 0.91 | 0.853 | 1.11 | 0.785 | 0.691 | 0.569 | 0.499 | 0.601 | 0.454 | 0.304
NCI-H650 | 0.389 | 0.392 | 0.499 | 0.488 | 0.393 | 0.513 | 0.376 | 0.262 | 0.393 | 0.377 | 0.337 | 0.299 | 0.185 | 0.856 | 0.888 | 1.05 | 0.705 | 0.51
NCI-H441 | 0.587 | 0.84 | 0.818 | 0.789 | 0.643 | 0.461 | 0.398 | 0.216 | 0.628 | 0.556 | 0.679 | 0.572 | 0.479 | 0.694 | 0.537 | 0.561 | 0.497 | 0.401
NCI-H1793 | – | 0.465 | 0.713 | 0.829 | 0.811 | 0.402 | 0.321 | 0.328 | 0.857 | 0.753 | 0.888 | 0.944 | 0.549 | 0.302 | 0.43 | 0.248 | 0.375 | 0.273
NCI-H1915 | – | 0.515 | 0.519 | 0.519 | 0.512 | 0.363 | 0.294 | 0.255 | 0.25 | 0.232 | 0.225 | 0.229 | 0.164 | 1 | 0.907 | 0.882 | 0.924 | 0.531
HCC-366 | 0.336 | 0.361 | 0.385 | 0.519 | 0.365 | 0.827 | 0.508 | 0.233 | 0.363 | 0.353 | 0.325 | 0.345 | 0.245 | 0.136 | 0.121 | 0.142 | 0.13 | 0.119
LCLC-103H | 0.712 | 0.664 | 0.718 | 0.878 | 0.76 | 0.568 | 0.464 | 0.168 | 0.79 | 0.722 | 0.731 | 0.719 | 0.627 | 0.586 | 0.574 | 0.614 | 0.501 | 0.492
SK-LU-1 | 0.643 | 0.859 | 0.787 | 0.911 | 0.685 | 0.188 | 0.138 | 0.0928 | 0.473 | 0.503 | 0.421 | 0.487 | 0.434 | 0.703 | 0.597 | 0.628 | 0.427 | 0.381
